From US20060239999A1, “Preventive and/or therapeutic drugs for asthma” (priority 2002, published 2006) come the findings set out here.

In general, IC50 refers to the concentration needed to halve the response being measured. A high value points to lower potency.

For one assay, the target named is T1, GPR4 (Homo sapiens, UniProt P46093).
T1 construct: expressed in transfected cells; host or cells: KJMGER8 (Namalwa KJM-1 human B-cell line stably expressing Gal4-ER), co-transfected with pAGal9-GPR4 and the CRE-luciferase reporter pACREpluc
In words: Antagonistic action on GPR4 (luciferase reporter in GPR4 assay cells induced by 17β-estradiol). It counts as cell-based. As to conditions: 10 nmol/L 17β-estradiol, 6 hours, luciferase luminescence. As for the experimental part:
Cells for GPR4 assay prepared in Referential Example 61 (said assay cells express GPR4 by stimulation with 17β-estradiol) were seeded on white plates at the rate of 10^5 cells/well, and a solution where 17β-estradiol (manufactured by Sigma) was diluted with a medium so as to make 10 nmol/L in the reaction solution and test compounds were added to the plate and the mixture was incubated at 37° C. for 6 hours in a 5% CO2 incubator. After that, a Steady Glo Luciferase Assay System (manufactured by Promega) solution was added to stop the reaction and the amount of luminescence during one second was measured using a Top Count (Packard, Meriden, Conn., U.S.
Activity of the each of test compounds (antagonistic action) was expressed by an inhibition rate calculated on the basis of counts per second in the presence or absence of 17β-estradiol as shown by the following formula. IC50 value was calculated from the inhibition rate by a linear approximate analysis of the Logit-Log conversion method.
In the formula, A, B and C each have the following meaning, respectively.
A: counts per second when 17β-estradiol and the test compound were added
B: counts per second when neither 17β-estradiol nor the test compound was added
C: counts per second when only 17β-estradiol was added
Inhibition Rate (%) [1−{(A−B)/(C−B)}]×100
1 μg of mRNA derived from human lung (manufactured by Clontech) was used and a single-stranded cDNA was synthesized using a SUPERSCRIPT First-Stranded Synthesis System for RT-PCR (manufactured by Gibco). GPR4 cDNA was prepared by PCR using a solution (5 μl) where said single-stranded cDNA was diluted with water to an extent of 250-fold as a template and synthetic DNA having nucleotide sequences represented by SEQ ID NO: 7 and NO: 8 as a GPR4 gene-specific primer. Sequence of the GPR4 gene-specific primer was designed on the basis of sequence information of GPR4 gene (GenBank Accession No. U21051). With regard to an enzyme, PfuTurbo DNA Polymerase (manufactured by Stratagene) was used. With regard to a buffer for conducting the PCR, a buffer of 10-fold concentration attached to the enzyme was used. The PCR was conducted by treating at 95° C. for 5 minutes and conducting 30 cycles of reaction each comprising at 94° C. for 1 minute, at 60° C. for 1 minute and at 72° C. for 1 minute using a thermal cycler DNA engine (manufactured by MJ Research).
2 μg of plasmid pAGal9-GPR4 with inducible expression of GPR4 and 2 μg of reporter plasmid pACREpluc were co-transferred into 6×10^6 cell of KJMGER8 by the above-mentioned electroporation. The transformants were suspended in 8 ml of an RPMI 1640-ITPSG medium and cultured in a CO2 incubator at 37° C. for 24 hours. After the cultivation, blasticidin S (2.0 μg/ml), hygromycin B (300 μg/ml) and geneticin (500 μg/ml) were added and cultivation was carried-out for 14 days more, and stable transformants (called GPR4 assay cells) were obtained. The transformants were subcultured in an RPMI 1640-ITPSG medium containing blasticidin S (2.0 μg/ml), hygromycin B (300 μg/ml) and geneticin (500 μg/ml).
A general note: In a reporter assay the amount or activity of a reporter protein is the signal.

The subject of assay [1] is BALB/c male mice. Put plainly: Suppressive effect on antigen-induced airway hyperreactivity (methacholine inhalation). Conditions: for airway hyperreactivity suppressed as compared with the positive control group: compound 1 100 mg/kg orally, prednisolone 30 mg/kg orally; for AUC of airway hyperreactivity: methacholine 1.5 to 25 mg/ml, compound 1 100 mg/kg orally 1 hour before and 6 hours after each antigen, prednisolone 30 mg/kg orally once before each antigen, mean value±standard error. In kind it is in vivo. The method, then:
(§1) Suspention prepared by mixing of 50 μg of ovalbumin and 1 mg of aluminum hydroxide in a physiological saline solution (Otsuka Physiological Saline; manufactured by Otsuka. Pharmaceutical) was intraperitoneally administered to BALB/c male mice (7 weeks age) for two times with an interval of one week to sensitize and, after 14, 18 and 22 days from the final sensitization, 1% solution of ovalbumin in a physiological saline solution or a physiological saline solution (a negative control group) was inhaled for 30 minutes respectively to induce an antigen-antibody reaction. In the case of measurement of bronchoconstriction, compound 1 was suspended in a 0.5% aqueous solution of methylcellulose (solvent) and, 1 hour before inhalation of antigen after 14 days from the final sensitization 100 mg/kg of the suspention was orally administered or, 5 minutes before that, 30 mg/kg was intraperitoneally administered. In the case of measurement of airway hyperreactivity or eosinophil infiltration in airway, compound 1 was suspended as mentioned above and, after 14, 18 and 22 days from the final sensitization, 100 mg/kg of the suspention was orally administered 1 hour before and 6 hours after inhalation of each antigen. As a reference drug, prednisolone which is a steroid used for the treatment of asthma was orally administered at a dose of 30 mg/kg (as a solution being suspended in 0.5% aqueous solution of methylcellulose) once, 1 hour before inhalation of each antigen after 14, 18 and 22 days from the final sensitization. In a positive control group, the solvent was administered instead of a suspension of a test compound. […]
(§2) With regard to the bronchoconstriction, airway resistance (penh) was evaluated by a measuring apparatus for respiration function of mice (BioSystems XA; Buxco Electronics, Inc., Sharon, Conn., U.S.A.) for 30 minutes from immediately after inhalation of antigen after 14 days from the final sensitization and evaluation was conducted by calculating the area under curve during the 30 minutes (AUC0-30 min). Further, after 24 hours from final inhalation of antigen, airway hyperreactivity and eosinophil infiltration in bronchoalveolar lavage fluid were evaluated.
(§3) With regard to eosinophil filtration, total cell numbers in the bronchoalveolar lavage fluid were measured by an automatic measuring apparatus for blood cell count (Celltac α MEK-6158; Nippon Koden, Tokyo), then the smears were prepared by Cytospin 3 (Shandon, Inc., Pittsburgh, Pa., U.S.A.) and evaluation was conducted by a morphological classification under a microscope. Eosinophil numbers were calculated by multiplying the total cell numbers by percentage of eosinophil cells. […]

Assay [2] deals with BALB/c male mice. Put plainly: Suppressive effect on antigen-induced eosinophil infiltration in airway (bronchoalveolar lavage fluid). In kind it is in vivo. Conditions: for Eosinophil numbers in bronchoalveolar lavage fluid: 24 hours after final antigen inhalation, compound 1 100 mg/kg orally 1 hour before and 6 hours after each antigen, prednisolone 30 mg/kg orally once before each antigen; for eosinophil numbers decreased as compared with the positive control group: compound 1 100 mg/kg orally, prednisolone 30 mg/kg orally. The method, then:
as §1, §2, §3

In assay [3] the test system is BALB/c male mice. In words: Suppressive effect on antigen-induced bronchoconstriction (airway resistance penh). Conditions: for AUC0-30min of the bronchoconstriction: ovalbumin-sensitized mice, mean value±standard error. In kind it is in vivo. As for the experimental part: Suspention prepared by mixing of 50 μg of ovalbumin and 1 mg of aluminum hydroxide in a physiological saline solution (Otsuka Physiological Saline; manufactured by Otsuka. Pharmaceutical) was intraperitoneally administered to BALB/c male mice (7 weeks age) for two times with an interval of one week to sensitize and, after 14, 18 and 22 days from the final sensitization, 1% solution of ovalbumin in a physiological saline solution or a physiological saline solution (a negative control group) was inhaled for 30 minutes respectively to induce an antigen-antibody reaction. In the case of measurement of bronchoconstriction, compound 1 was suspended in a 0.5% aqueous solution of methylcellulose (solvent) and, 1 hour before inhalation of antigen after 14 days from the final sensitization 100 mg/kg of the suspention was orally administered or, 5 minutes before that, 30 mg/kg was intraperitoneally administered. In the case of measurement of airway hyperreactivity or eosinophil infiltration in airway, compound 1 was suspended as mentioned above and, after 14, 18 and 22 days from the final sensitization, 100 mg/kg of the suspention was orally administered 1 hour before and 6 hours after inhalation of each antigen. As a reference drug, prednisolone which is a steroid used for the treatment of asthma was orally administered at a dose of 30 mg/kg (as a solution being suspended in 0.5% aqueous solution of methylcellulose) once, 1 hour before inhalation of each antigen after 14, 18 and 22 days from the final sensitization. In a positive control group, the solvent was administered instead of a suspension of a test compound. (In the case of measurement of bronchoconstriction, the solvent was administered once, 1 hour before inhalation of antigen after 14 days from the final sensitization as for oral administration, or the solvent was administered once 30 minutes before inhalation of antigen after 14 days from the final sensitization as for intraperitoneal administration. In the case of measurement of airway hyperreactivity and eosinophil infiltration in airway, the solvent was administered 1 hour before and 6 hours after inhalation of each antigen after 14, 18 and 22 days from the final sensitization.)
as §2

Structures are written as SMILES.

T1 sequence (P46093 whole entry, the tested form may be a part): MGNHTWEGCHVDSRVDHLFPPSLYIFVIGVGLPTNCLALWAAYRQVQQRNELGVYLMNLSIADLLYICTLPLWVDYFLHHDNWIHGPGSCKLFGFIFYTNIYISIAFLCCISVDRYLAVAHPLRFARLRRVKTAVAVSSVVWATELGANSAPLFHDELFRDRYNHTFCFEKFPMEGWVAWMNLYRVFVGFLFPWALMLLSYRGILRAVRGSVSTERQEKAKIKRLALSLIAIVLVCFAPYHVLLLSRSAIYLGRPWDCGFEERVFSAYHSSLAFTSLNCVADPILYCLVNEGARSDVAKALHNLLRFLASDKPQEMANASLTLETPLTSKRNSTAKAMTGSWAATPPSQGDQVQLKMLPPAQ

`CCc1nc2c(C)cc(C)nc2n1Cc1ccc2c(c1)CCc1cc(CN3CC(C)CC(C)C3)ccc1N2` (centres unmarked) [Compound 5]: the IC50 on GPR4 was determined as 14 nM.
Turning to `C[C@]12C=CC(=O)C=C1CC[C@@H]1[C@@H]2[C@@H](O)C[C@@]2(C)[C@H]1CC[C@]2(O)C(=O)CO` [prednisolone, reference compound], in the assay with BALB/c male mice [1], the “airway hyperreactivity suppressed as compared with the positive control group” value is 43% and the “AUC of airway hyperreactivity” value was determined as 269.12±46.7. In the assay on BALB/c male mice [2], the “Eosinophil numbers in bronchoalveolar lavage fluid” value was 0.76±0.25 ×10^5 per mouse and the “eosinophil numbers decreased as compared with the positive control group” value is reported as 73%.
`CCc1nc2c(C)cc(C)nc2n1Cc1ccc2c(c1)CCc1cc(CN3CCCC3)ccc1N2` [Compound 3, 2-(2-Ethyl-5,7-dimethyl-3H-imidazo[4,5-b]pyridin-3-ylmethyl)-8-(pyrrolidin-1-ylmethyl)-10,11-dihydro-5H-dibenz[b,f]azepine] displayed an IC50 on GPR4 of 2.3 nM. That is a single-digit nanomolar value.
The same measure, in the same setting: the result for `CCc1nc2c(C)cc(C)nc2n1Cc1ccc2c(c1)CCc1cc(CN3CCOCC3)ccc1N2` [Compound 4, 2-(2-Ethyl-5,7-dimethyl-3H-imidazo[4,5-b]pyridin-3-ylmethyl)-8-morpholinomethyl-10,11-dihydro-5H-dibenz[b,f]a zepine] reads 5.8 nM; that for `CCc1nc2c(C)cc(C)nc2n1Cc1ccc2c(c1)CCc1cc(CN3CC=CCC3)ccc1N2` [Compound 2, 2-(2-Ethyl-5,7-dimethyl-3H-imidazo[4,5-b]pyridin-3-ylmethyl)-8-(1,2,5,6-tetrahydropyridin-1-ylmethyl)-10,11-dihydro-5H-dibenz[b,f]azepine], 3.2 nM.
For the compound `CCc1nc2c(C)cc(C)nc2n1Cc1ccc2c(c1)CCc1cc(CN3CCN(C)CC3)ccc1N2` [Compound 1, 2-(2-Ethyl-5,7-dimethyl-3H-imidazo[4,5-b]pyridin-3-ylmethyl)-8-(4-methylpiperazin-1-ylmethyl)-10,11-dihydro-5H-dibenz[b,f]azepine], the IC50 against GPR4 was determined as 4 nM. In the assay on BALB/c male mice [3] (30 mg/kg intraperitoneally), the “bronchoconstriction suppressed as compared with the positive control group” value was 105%. The “bronchoconstriction suppressed as compared with the positive control group” value in the assay with BALB/c male mice [3] (100 mg/kg orally) was 44%. In addition, in the assay on BALB/c male mice [3] (30 mg/kg intraperitoneally before antigen inhalation), the “AUC0-30min of the bronchoconstriction” value is on record as 14.60±0.46. Besides, the “AUC0-30min of the bronchoconstriction” value with BALB/c male mice [3] (100 mg/kg orally 1 hour before antigen inhalation) came out at 16.85±0.84. Besides, in the assay with BALB/c male mice [1], the “airway hyperreactivity suppressed as compared with the positive control group” value was found to be 60% and the “AUC of airway hyperreactivity” value turned out to be 243.23±48.7. For the same compound, in the assay on BALB/c male mice [2], the “Eosinophil numbers in bronchoalveolar lavage fluid” value is 0.92±0.26 ×10^5 per mouse and the “eosinophil numbers decreased as compared with the positive control group” value is 67%.
